Data published in patent US20260041640A1 (INCYCLIX BIO, LLC, priority 2023, published 2026).
“And” between values parts separate entries of the source, which are not always exact repeats. Equal values may be shown once. Read-outs that look alike come from different tables or passages of the source.

Assay: First-in-human clinical study: plasma and whole blood PK of INX-315 (oral QD, ASD tablet)
Type: in vivo
From the text: All INX-315 tablets were taken at approximately the same time(s) each day.
Samples will also be collected pre-dose on Cycle 1 Days 2, 8, 16, and Day 22, and pre-dose on Day 1 of each subsequent cycle.
Standard non-compartmental PK parameters were estimated.
Geometric mean and geometric CV % will be included in the summary statistics.
PK parameters will be summarized descriptively by dosing cohort. AUC and Cmax values will also be presented in scatter plots. Dose proportionality will be assessed for AUC and Cmax using a power model. The 90% CI of the slope for each PK parameter will be estimated from the model and presented in a summary table.
Cohort 1 enrollment of 6 subjects dosed at 100 mg oral QD was completed in October of 2023.
Patients were upgraded to the 200 mg QD dose level and PK/PD plasma parameters were measured (FIG. 18A).
Patients were administered the 200 mg QD and 300 mg QD dose levels and PK/PD plasma parameters were measured.

[1] = plasma, 100 mg QD cohort, Day 1, individual subjects
[2] = plasma, 100 mg QD cohort, Day 1, median
[3] = plasma, 100 mg QD cohort, Day 15, individual subjects
[4] = plasma, 100 mg QD cohort, Day 15, median
[5] = plasma, 100 mg QD, Day 1, individual patients
[6] = plasma, 100 mg QD, Day 15, individual patients
[7] = plasma, 200 mg QD, Day 1, Cohort 2
[8] = plasma, 200 mg QD, Day 1, individual subjects
[9] = plasma, 200 mg QD, Day 15, Cohort 2
[10] = plasma, 200 mg QD, Day 15, individual subjects
[11] = plasma, 300 mg QD cohort, Day 1, individual subjects
[12] = plasma, 300 mg QD cohort, Day 1, median
[13] = plasma, 300 mg QD cohort, Day 15, individual subjects
[14] = whole blood, 100 mg QD, Day 1, individual patients
[15] = whole blood, 100 mg QD, Day 15, individual patients

SMILES: NS(=O)(=O)c1ccc(Nc2ncc3cc4n(c3n2)C2(CCCCC2)C(=O)NN4)cc1 [INX-315]
- Tmax (human, plasma, po, 100 mg, plasma, 100 mg QD cohort, Day 1, median, read-out: Tmax, Median): 4 h
- half-life (human, plasma, po, 100 mg, plasma, 100 mg QD cohort, Day 1, median, read-out: t1/2, Median (converted)): 15.6 h
- AUC(0-t) (human, plasma, po, 100 mg, plasma, 100 mg QD cohort, Day 15, geometric mean, read-out: AUClast, Geometric Mean): 3290 ng·h/mL
- Cmax (human, plasma, po, 100 mg, plasma, 100 mg QD cohort, Day 15, geometric mean, read-out: Cmax, Geometric Mean): 211 ng/mL
- half-life (human, plasma, po, 100 mg, plasma, 100 mg QD cohort, Day 15, individual subjects, read-out: t1/2 (converted)): 17.6 h
- AUC(0-t) (human, plasma, po, 100 mg, plasma, 100 mg QD cohort, Day 15, median, read-out: AUClast, Median): 3120 ng·h/mL
- Cmax (human, plasma, po, 100 mg, plasma, 100 mg QD cohort, Day 15, median, read-out: Cmax, Median): 217 ng/mL
- Tmax (human, plasma, po, 100 mg, plasma, 100 mg QD cohort, Day 15, median, read-out: Tmax, Median): 6 h
- half-life (human, whole blood, oral, 100 mg, preliminary data, first two patients, 100 mg QD, read-out: t1/2 (converted)): ≥ 15 h
- AUC(0-t) (human, whole blood, oral, 100 mg, whole blood, 100 mg QD, Day 1, Cohort 1 (Table 28), read-out: AUClast, geometric mean): 34700 ng·h/mL
- Cmax (human, whole blood, oral, 100 mg, whole blood, 100 mg QD, Day 1, Cohort 1 (Table 28), read-out: Cmax, geometric mean): 2280 ng/mL
- Tmax (human, whole blood, oral, 100 mg, whole blood, 100 mg QD, Day 1, Cohort 1 (Table 28), read-out: Tmax, median): 6 h
- half-life (human, whole blood, oral, 100 mg, whole blood, 100 mg QD, Day 1, Cohort 1 (Table 28), read-out: t1/2, geometric mean (converted)): 17.9 h
- AUC (human, whole blood, oral, 100 mg, whole blood, 100 mg QD, Day 1 observed, mean of first two patients, read-out: AUC): 50600 ng·h/mL
- Cmax (human, whole blood, oral, 100 mg, whole blood, 100 mg QD, Day 1 observed, mean of first two patients, read-out: Cmax): 3000 ng/mL
- AUC(0-t) (human, whole blood, oral, 100 mg, whole blood, 100 mg QD, Day 15, Cohort 1 (Table 28), read-out: AUClast, median): 62700 ng·h/mL
- Cmax (human, whole blood, oral, 100 mg, whole blood, 100 mg QD, Day 15, Cohort 1 (Table 28), read-out: Cmax, median): 3580 ng/mL
- Tmax (human, whole blood, oral, 100 mg, whole blood, 100 mg QD, Day 15, Cohort 1 (Table 28), read-out: Tmax, median): 6 h
- half-life (human, whole blood, oral, 100 mg, whole blood, 100 mg QD, Day 15, individual patients, read-out: t1/2 (converted)): 21.6 h
- AUC (human, whole blood, oral, 100 mg, whole blood, 100 mg QD, Day 15 observed, mean of first two patients, read-out: AUC): 116000 ng·h/mL
- Cmax (human, whole blood, oral, 100 mg, whole blood, 100 mg QD, Day 15 observed, mean of first two patients, read-out: Cmax): 5440 ng/mL
- AUC (human, whole blood, oral, 200 mg, Cohort 2 (200 mg QD), Day 1, individual subjects, read-out: AUC Whole Blood): 96600 ng·h/mL
- AUC (human, whole blood, oral, 300 mg, Cohort 3 (300 mg QD), Day 1, individual subjects, read-out: AUC Whole Blood): 134000 ng·h/mL
- AUC (human, whole blood, oral, 300 mg, Cohort 3 (300 mg QD), Day 15, Tlast = 6 hours, read-out: AUC Whole Blood): 43900 ng·h/mL
- AUC (human, whole blood, oral, 300 mg, Cohort 3 (300 mg QD), Day 15, individual subjects, read-out: AUC Whole Blood): 86400 ng·h/mL
- Clast, geometric mean (plasma, 100 mg QD cohort, Day 1, geometric mean): 48.7 ng/mL
- AUClast [1]: 2410 ng·h/mL and 1840 ng·h/mL and 3300 ng·h/mL and 2160 ng·h/mL and 3360 ng·h/mL and 633 ng·h/mL
- Clast [1]: 42.3 ng/mL and 50.7 ng/mL and 85.2 ng/mL and 31.9 ng/mL and 114 ng/mL and 20 ng/mL
- Cmax [1]: 320 ng/mL and 109 ng/mL and 197 ng/mL and 43.8 ng/mL
- Tlast [1]: 24 h
- Clast, median [2]: 46.5 ng/mL
- Tlast, Median [2]: 24 h
- Clast, geometric mean (plasma, 100 mg QD cohort, Day 15, geometric mean): 90.6 ng/mL
- AUClast [3]: 6840 ng·h/mL and 1930 ng·h/mL and 1640 ng·h/mL and 5700 ng·h/mL
- Clast [3]: 188 ng/mL and 65.4 ng/mL and 63.1 ng/mL and 154 ng/mL and 51.2 ng/mL
- Cmax [3]: 424 ng/mL and 96.4 ng/mL and 344 ng/mL
- Tlast [3]: 24 h
- t1/2 [3]: 16.0 h
- Clast, median [4]: 65.4 ng/mL
- Tlast, Median [4]: 24 h
- dose proportionality of exposure (AUC) (plasma, 100 mg QD versus 200 mg QD): dose-proportional increase in exposure (or greater)
- dose proportionality of exposure (plasma, 100 mg QD versus 200 mg QD and 300 mg QD): dose-proportional increase in exposure (or greater)
- Clast, geometric mean (plasma, 100 mg QD, Day 1, Cohort 1 (Table 27)): 61.4 ng/mL
- AUClast [5]: 3410 ng·h/mL and 2160 ng·h/mL and 2510 ng·h/mL and 1990 ng·h/mL
- Clast [5]: 119 ng/mL and 86.3 ng/mL and 33.9 ng/mL and 43.9 ng/mL and 57.0 ng/mL
- Cmax [5]: 194 ng/mL and 197 ng/mL and 179 ng/mL and 326 ng/mL and 119 ng/mL
- Tlast [5]: 24 h
- t1/2 [5]: 8.88 h and 11.5 h and 16.7 h
- AUClast [6]: 5920 ng·h/mL
- Clast [6]: 199 ng/mL and 155 ng/mL
- Cmax [6]: 358 ng/mL
- Tlast [6]: 24 h
- t1/2 [6]: 15.2 h
- Clast, geometric mean [7]: 223 ng/mL
- Clast, median [7]: 261 ng/mL
- Tlast, Median [7]: 24 h
- AUClast [8]: 7300 ng·h/mL and 11300 ng·h/mL and 19100 ng·h/mL and 4540 ng·h/mL
- Clast [8]: 212 ng/mL and 291 ng/mL and 487 ng/mL and 69.7 ng/mL and 261 ng/mL
- Cmax [8]: 444 ng/mL and 800 ng/mL and 1140 ng/mL and 305 ng/mL
- Tlast [8]: 24 h
- Clast, geometric mean [9]: 263 ng/mL
- Clast, median [9]: 320 ng/mL
- Tlast, Median [9]: 24 h
- AUClast [10]: 6560 ng·h/mL and 14300 ng·h/mL and 18100 ng·h/mL and 13200 ng·h/mL
- Clast [10]: 88.8 ng/mL and 324 ng/mL and 521 ng/mL and 317 ng/mL
- Cmax [10]: 1230 ng/mL and 997 ng/mL and 758 ng/mL
- Tlast [10]: 24 h
- t1/2 [10]: 10.5 h and 14.3 h
- Clast, geometric mean (plasma, 300 mg QD cohort, Day 1, geometric mean): 213 ng/mL
- AUClast [11]: 7590 ng·h/mL and 11000 ng·h/mL and 8080 ng·h/mL and 11500 ng·h/mL
- Clast [11]: 148 ng/mL and 135 ng/mL and 303 ng/mL and 219 ng/mL and 331 ng/mL
- Cmax [11]: 550 ng/mL and 490 ng/mL and 812 ng/mL
- Tlast [11]: 24 h
- t1/2 [11]: 16.2 h
- Clast, median [12]: 219 ng/mL
- Tlast, Median [12]: 24 h
- AUClast [13]: 4430 ng·h/mL
- Clast [13]: 96.8 ng/mL and 359 ng/mL
- Cmax [13]: 840 ng/mL
- Tlast [13]: 24 h and 8 h
- Tmax [13]: 0.5 h
- t1/2 [13]: 5.80 h
- factor by which observed AUC exceeded the model (whole blood, 100 mg QD, Day 1): 9 ×
- Clast, geometric mean (whole blood, 100 mg QD, Day 1, Cohort 1 (Table 28)): 956 ng/mL
- AUClast [14]: 60500 ng·h/mL and 40600 ng·h/mL and 37800 ng·h/mL and 32500 ng·h/mL and 13400 ng·h/mL and 43600 ng·h/mL
- Clast [14]: 1840 ng/mL and 1020 ng/mL and 1180 ng/mL and 719 ng/mL and 502 ng/mL and 954 ng/mL
- Cmax [14]: 3430 ng/mL and 2570 ng/mL and 2110 ng/mL and 2710 ng/mL and 805 ng/mL and 3470 ng/mL
- Tlast [14]: 24 h
- t1/2 [14]: 22.4 h and 13.9 h and 20.5 h and 14.5 h and 27.4 h and 12.8 h
- Cmin (whole blood, 100 mg QD, Day 1 observed, mean of first two patients): 1430 ng/mL
- Clast, median (whole blood, 100 mg QD, Day 15, Cohort 1 (Table 28)): 1670 ng/mL
- AUClast [15]: 117000 ng·h/mL and 31400 ng·h/mL
- Clast [15]: 3220 ng/mL and 1670 ng/mL and 891 ng/mL
- Cmax [15]: 7290 ng/mL and 1820 ng/mL
- Tlast [15]: 24 h
- t1/2 [15]: 18.3 h
- Cmin (whole blood, 100 mg QD, Day 15 observed, mean of first two patients): 2445 ng/mL
- Total Area (whole blood, 100 mg QD, d 1, Patients 1 and 2): 60740 and 41732
- Total Area (whole blood, 100 mg QD, d 15, Patients 1 and 2): 118285 and 65180
